This note sets out measurements from article PMC11571207, “Stereorandomized Oncocins with Preserved Ribosome Binding and Antibacterial Activity” (Journal of Medicinal Chemistry, 2024).

For experiment [1], the system named is E. coli ribosome, U2506 of the 23S rRNA. The experiment in a line: Ribosome footprinting (CMCT modification of U2506). The experiment is classed as binding. The conditions noted are these: 1 μM peptide, 10.5 μM CMCT, purified E. coli ribosomes (5 pmol), 25 °C; primer extension, sequencing gel.
Experimental: A 5 mL culture of E. coli MG1655 (WT-cells) was grown in LB overnight (220 rpm, 37 °C). One liter LB medium was inoculated, and bacteria were grown to OD = 0.6 (220 rpm. 37 °C); cells were centrifuged in centrifuge bottles, and the pellet was resuspended in ice-cold water and transferred in 50 mL falcon tubes. Falcon tubes were centrifuged, the supernatant was removed, the pellet was resuspended in 15 mL polysome buffer (TRIS/HCl pH 7.5 20 mM, NH4Cl 100 mM, MgCl2 10 mM, EDTA 0.5 mM, β-mercaptoethanol 60 mM), frozen dropwise in N2 (l), and stored at −80 °C. The cells were ground in CryoMil with the standard program (1 min precooling, 2 min grinding 5/s, 2 min cooling, 2 min grinding 5/s). The powder was transferred in 50 mL falcon tubes containing N2 (l) and stored at −80 °C. The lysates were thawed with a water bath (30 °C), put on ice, transferred to precooled Eppendorf tubes, and centrifuged (5000 g, 2 min, 4 °C). The clear lysate was transferred to new precooled tubes, centrifuged (14 000 g, 10 min, 4 °C), and the supernatant was transferred to new precooled tubes. 300 mL of clear lysate was loaded on a 10–50% sucrose gradient in CMCT buffer (K-borate buffer pH 8 80 mM, MgCl2 25 mM, NH4Cl 100 mM) and ultracentrifuged (3 h, 234 050 g, 4 °C). The fractions containing monosomes and polysomes were collected and ultracentrifuged overnight (16 h, 260 800 g, 4 °C). The supernatant was discarded, and the pellet was washed with ice-cold CMCT buffer. The ribosomes were resuspended in 100 μL CMCT buffer with a mini magnetic stirring bar and stored on ice. The concentration of ribosomes was measured in 1/200 dilution in water.
Ribosomes (5 pmol) were mixed with 8 μL of CMCT buffer, the compound of interest 1 μM, and water to a final volume of 20 μL in a precooled tube and incubated at 25 °C for 10 min. 20 μL of CMCT (10.5 μM) in water was added and incubated at 25 °C for 30 min. The reaction was stopped with 160 μL of EDTA (30 μM), and the samples were stored on ice.
160 μL portion of RNA resuspension buffer and 40 μL of 10% SDS were added, and the samples were vigorously resuspended. 400 μL of prewarmed acid phenol was added, and the samples were incubated on a thermomixer (5 min, 1200 rpm, 65 °C). The samples were put on ice for 5 min and centrifuged (5 min, 14 000 g, RT). The watery phase was transferred to a new precooled tube, 400 μL of phenol–chloroform–isoamyl alcohol (4 °C) was added, and the samples were mixed (5 min, 1200 rpm, RT). The samples were centrifuged again (5 min, 14 000g, RT), and the watery phase was transferred to another precooled tube. 34 μL of 3 M NaOAc pH 5.5, 0.8 μL of Glycoblue and 400 μL of isopropanol were added, and the samples were incubated for 3 h at −80 °C. The samples were then centrifuged (40 min, 21 000g, 4 °C), and the pellet was washed with ice-cold 70% EtOH. The residual liquid was removed, and the samples were dried (5 min, 37 °C). The samples were resuspended in 20 μL of water, the concentration was measured, and the samples were −80 °C.
Primers designed to probe the positions 2506 of the 23S rRNA (5-[sequence]-3′) were labeled with radioactive phosphate (γ^32 P-ATP). […] To prepare primers for one reaction, 1 μL of primer (0.3 μM), 0.4 μL of 5× PNK-buffer, 0.25 μL of water, 0.2 μL of γ^32 P-ATP, and 0.15 μL of T4 PNK were mixed and incubated at 37 °C.
Experiment [2] relates to E. coli W3110. Briefly: Time-killing kinetic assay, E. coli. The settings on record: 8× MIC, full MHB pH 7.4, 0-6 h, n = 6. The experiment is classed as cell-based, Escherichia coli. As to the method: (§1) Time-Killing Kinetic Assay
(§2) Single colonies of E. coli W3110 and K. pneumoniae NCTC418 were picked and grown overnight with shaking (180 rpm) in LB (Sigma-Aldrich, Buchs, Switzerland) medium 5 mL overnight at 37 °C. The overnight bacterial cultures were diluted to OD600 = 0.002 (2 × 10^6 CFU/mL) in fresh MHB medium. Stock solutions of AMPs in sterilized milliQ water were prepared in 1 mg/mL and were diluted to two times more than required concentration in fresh MHB (Sigma- Aldrich, Buchs, Switzerland) medium at pH 7.4. 100 μL of prepared bacteria solution in MHB and 100 μL of samples in MHB were mixed in a 96-well microtiter plate (TPP, untreated, Corning Incorporated, Kennebunk, USA). Untreated bacteria at 1 × 10^6 CFU/mL were used as a growth control. 96-well microtiter plates were incubated in 37 °C with shaking (180 rpm). Surviving bacteria were quantified at 0, 0.5, 1, 2, 4 and 6 h by plating 10 -fold dilutions of the sample in sterilized normal saline on LB agar plates. LB agar plates were incubated at 37 °C for 10 h, and the number of individual colonies was counted at each time point. The assay was performed in triplicate in a biosafety level 2 lab. […]

For a further experiment, the system named is K. pneumoniae NCTC418. The experiment in a line: Time-killing kinetic assay, K. pneumoniae. Format: cell-based, Klebsiella pneumoniae. The settings on record: 8× MIC, full MHB pH 7.4, 0-6 h, n = 6. As to the method:
as §1, §2

Another experiment has as its system A. baumannii ATCC19606. Briefly: microbe, parasite or virus in culture. The conditions noted are these: for MIC A. baumannii ATCC19606: supplement CSV. Summed up: (§3)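 Read-out was visible growth after MTT addition, the MIC being the lowest inhibitory peptide concentration. Bacteria grown to log phase in LB were exposed in MH medium to peptide from 64 μg/mL in twofold dilutions for 15-18h at 37°C.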

A further experiment concerns S. aureus COL (MRSA). The experiment in a line: microbe, parasite or virus in culture. The settings on record: for MIC S. aureus COL (MRSA): supplement CSV. Summed up: as §3
In experiment [3] the test system is E. coli W3110. The experiment in a line: microbe, parasite or virus in culture. The settings on record: for MIC E. coli W3110: supplement CSV. Summed up: as §3
Another experiment deals with P. aeruginosa PAO1. Briefly: microbe, parasite or virus in culture. The conditions noted are these: for MIC P. aeruginosa PAO1: supplement CSV. The method, boiled down:
as §3

The test system of a further experiment is K. pneumoniae NCTC 418. The experiment in a line: microbe, parasite or virus in culture. The settings on record: for MIC K. pneumoniae NCTC418: supplement CSV. Summed up: as §3

No end group written: not given here. Bounds are passed on as bounds.

Take “VDKPPYLPRPRPPRRIYNR [sr9Cterm-Onc] (VDKPPYLPRPRPPRRIYNR-NH2; also: residues 11-19 stereorandomized (1:1 L/D mixture))”: in experiment [1], the “Protection of U2506 of 23S rRNA from CMCT modification (band at C2507)” value is “protected from CMCT modification”. The “Killing profile against E. coli” value in the experiment on E. coli W3110 [2] is given as “comparable kinetics to L-Onc”. Also, the “Killing profile against K. pneumoniae” value with K. pneumoniae NCTC418 was “comparable kinetics to L-Onc”. Besides, in the experiment with A. baumannii ATCC19606 (A. baumannii ATCC19606, 12.5% Müller–Hinton medium, 16–20 h at 37 °C), the “MIC A. baumannii, 12.5% MHB” value was 4 µg/mL. Further, the “MIC A. baumannii, Full MHB” value against A. baumannii ATCC19606 (A. baumannii ATCC19606, full Müller–Hinton medium, 16–20 h at 37 °C) came to 32 µg/mL. Also, the results for the “MIC A. baumannii ATCC19606” value with A. baumannii ATCC19606 (12.5% MH pH 7.4) and in the experiment with A. baumannii ATCC19606 (full MH pH 7.4) were 4 µg/mL and 32 µg/mL, respectively. Moreover, the “MIC S. aureus, 12.5% MHB” value in the experiment on S. aureus COL (MRSA) (S. aureus COL (MRSA), 12.5% Müller–Hinton medium, 16–20 h at 37 °C) is 32 µg/mL. In the experiment with S. aureus COL (MRSA) (S. aureus COL (MRSA), full Müller–Hinton medium, 16–20 h at 37 °C), the “MIC S. aureus, Full MHB” value is greater than 64 µg/mL. Further, the results for the “MIC S. aureus COL (MRSA)” value against S. aureus COL (MRSA) (12.5% MH pH 7.4) and in the experiment on S. aureus COL (MRSA) (full MH pH 7.4) were 32 µg/mL and greater than 64 µg/mL, respectively. Also, the “MIC E. coli, 12.5% MHB” value in the experiment on E. coli W3110 [3] (E. coli W3110, 12.5% Müller–Hinton medium, 16–20 h at 37 °C, broth microdilution) is 4 µg/mL. Besides, in the experiment on E. coli W3110 [3] (E. coli W3110, full Müller–Hinton medium, 16–20 h at 37 °C, broth microdilution), the “MIC E. coli, Full MHB” value came to 8 µg/mL. Moreover, the results for the “MIC E. coli W3110” value in the experiment with E. coli W3110 [3] (12.5% MH pH 7.4) and against E. coli W3110 [3] (full MH pH 7.4) were 4 µg/mL and 8 µg/mL, respectively. Also, the “MIC P. aeruginosa, 12.5% MHB” value with P. aeruginosa PAO1 (P. aeruginosa PAO1, 12.5% Müller–Hinton medium, 16–20 h at 37 °C) turned out to be 8 µg/mL. Moreover, in the experiment with P. aeruginosa PAO1 (P. aeruginosa PAO1, full Müller–Hinton medium, 16–20 h at 37 °C), the “MIC P. aeruginosa, Full MHB” value came to 64 µg/mL. Further, the figures for the “MIC P. aeruginosa PAO1” value in the experiment with P. aeruginosa PAO1 (12.5% MH pH 7.4) and with P. aeruginosa PAO1 (full MH pH 7.4) were 8 µg/mL and 64 µg/mL, respectively. For the same sequence, in the experiment on K. pneumoniae NCTC 418 (K. pneumoniae NCTC 418, 12.5% Müller–Hinton medium, 16–20 h at 37 °C), the “MIC K. pneumoniae, 12.5% MHB” value was 4 / 4 μg/mL. The “MIC K. pneumoniae, Full MHB” value with K. pneumoniae NCTC 418 (K. pneumoniae NCTC 418, full Müller–Hinton medium, 16–20 h at 37 °C) is 4 / 4 μg/mL. Also, the “MIC K. pneumoniae NCTC418” value against K. pneumoniae NCTC 418 (12.5% MH pH 7.4) and against K. pneumoniae NCTC 418 (full MH pH 7.4) was 4 µg/mL each time.
